Measured values: patent publication US20100168102A9, “Amide Derivatives as Kinase Inhibitors” (Devgen NV, priority 2005, published 2010)
Where a name gives a salt, the structure may show the parent alone.

Legend:
PKC epsilon = target: T1, PKC epsilon (Homo sapiens, UniProt Q02156); experiment: Biochemical assay for PKC epsilon (fluorescence polarization, Protein Kinase C Assay Kit, Red); details: read-out: IC50 μM PKCε
T1 construct: purchased Invitrogen P2282
T1 sequence (Q02156 1-737): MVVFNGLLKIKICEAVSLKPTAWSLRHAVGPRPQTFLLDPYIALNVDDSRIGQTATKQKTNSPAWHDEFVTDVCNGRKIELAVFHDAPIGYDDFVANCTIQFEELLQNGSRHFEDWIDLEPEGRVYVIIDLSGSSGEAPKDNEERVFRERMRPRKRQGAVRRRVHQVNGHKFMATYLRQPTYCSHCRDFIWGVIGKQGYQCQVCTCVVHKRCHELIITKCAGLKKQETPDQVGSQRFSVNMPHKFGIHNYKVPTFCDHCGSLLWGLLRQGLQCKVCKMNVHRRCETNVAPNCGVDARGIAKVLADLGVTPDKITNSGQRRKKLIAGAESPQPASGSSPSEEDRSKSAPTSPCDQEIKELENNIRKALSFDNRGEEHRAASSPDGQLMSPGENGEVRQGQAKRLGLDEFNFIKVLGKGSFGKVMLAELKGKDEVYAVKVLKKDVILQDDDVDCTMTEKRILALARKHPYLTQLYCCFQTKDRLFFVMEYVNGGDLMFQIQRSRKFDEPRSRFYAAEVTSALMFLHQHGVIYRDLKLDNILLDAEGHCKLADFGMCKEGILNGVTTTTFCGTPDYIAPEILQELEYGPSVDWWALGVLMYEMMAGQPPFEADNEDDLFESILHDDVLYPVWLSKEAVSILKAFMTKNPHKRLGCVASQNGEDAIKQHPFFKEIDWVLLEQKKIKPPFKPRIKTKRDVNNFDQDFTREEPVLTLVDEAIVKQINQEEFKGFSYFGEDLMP
Method in brief: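 Read-out was fluorescence-polarization competition between phosphorylated substrate and a rhodamine PKC tracer for an anti-phosphoserine antibody, added with EDTA stop after an 80 min room-temperature kinase reaction with ATP and protein substrate (Mg2+/Ca2+ buffer). Enzyme (10 ng/ml final) was preincubated with compound for 30 min.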

human ROCKα/ROCKII mix = target: T2, human ROCKα/ROCKII mix (Homo sapiens, UniProt O75116); experiment: Biochemical assay for ROCK (fluorescence polarization, ROCK IMAP Kit)
T2 construct: purchased Upstate Biotechnology 14-451
T2 sequence (O75116 11-552 limits assumed): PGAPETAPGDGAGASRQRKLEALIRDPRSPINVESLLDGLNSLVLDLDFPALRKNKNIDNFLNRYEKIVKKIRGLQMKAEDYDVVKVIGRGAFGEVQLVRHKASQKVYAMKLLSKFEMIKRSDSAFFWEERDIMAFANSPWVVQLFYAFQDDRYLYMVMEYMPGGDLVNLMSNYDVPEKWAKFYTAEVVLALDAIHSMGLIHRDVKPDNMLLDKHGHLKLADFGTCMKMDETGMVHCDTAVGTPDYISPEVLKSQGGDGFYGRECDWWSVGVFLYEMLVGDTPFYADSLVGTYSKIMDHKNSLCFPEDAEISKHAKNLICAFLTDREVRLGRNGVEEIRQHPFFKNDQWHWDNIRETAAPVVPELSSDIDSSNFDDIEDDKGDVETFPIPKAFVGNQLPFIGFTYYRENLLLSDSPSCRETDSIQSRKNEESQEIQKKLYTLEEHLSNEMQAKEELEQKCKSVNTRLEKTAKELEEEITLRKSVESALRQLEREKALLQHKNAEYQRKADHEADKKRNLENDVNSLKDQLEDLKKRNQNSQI

SMILES	IC50 (PKC epsilon) [µM]	IC50 (human ROCKα/ROCKII mix) [µM]
N[C@@H](CNC(=O)C1(c2ccc(Cl)cc2)CC1)c1ccc(C(=O)Nc2ccncc2)cc1 [Compound 398, 4-((R)-1-Amino-2-{[1-(4-chloro-phenyl)-cyclopropanecarbonyl]-amino}-ethyl)-N-pyridin-4-yl-benzamide dihydrochloric acid salt]	0.5 to 5	0.5 to 5
CC(C)(C(=O)NC[C@H](N)c1ccc(C(=O)Nc2ccncc2)cc1)c1ccc(Cl)cc1 [Compound 400, 4-{(R)-1-Amino-2-[2-(4-chloro-phenyl)-2-methyl-propionylamino]-ethyl}-N-pyridin-4-yl-benzamide]	0.5 to 5	0.5 to 5
N[C@H](CC(=O)NCc1ccc(F)cc1)c1ccc(C(=O)Nc2ccncc2)cc1 [Compound 401, 4-[(R)-1-Amino-2-(4-fluoro-benzylcarbamoyl)-ethyl]-N-pyridin-4-yl-benzamide dihydrochloric acid salt]	< 0.05	0.05 to 0.5
N[C@@H](CC(=O)NCc1ccc(F)cc1)c1ccc(C(=O)Nc2ccncc2)cc1 [Compound 402, 4-[(S)-1-Amino-2-(4-fluoro-benzylcarbamoyl)-ethyl]-N-pyridin-4-yl-benzamide dihydrochloric acid salt]	0.05 to 0.5	0.05 to 0.5
N[C@H](CC(=O)N[C@@H]1COc2ccccc21)c1ccc(C(=O)Nc2ccncc2)cc1 [Compound 405, 4-{(R)-1-Amino-2-[(S)-(2,3-dihydro-benzofuran-3-yl)carbamoyl]-ethyl}-N-pyridin-4-yl-benzamide]	< 0.05	< 0.05
N[C@H](CC(=O)N[C@H]1COc2ccccc21)c1ccc(C(=O)Nc2ccncc2)cc1 [Compound 406, 4-{(R)-1-Amino-2-[(R)-(2,3-dihydro-benzofuran-3-yl)carbamoyl]-ethyl}-N-pyridin-4-yl-benzamide]	0.05 to 0.5	0.05 to 0.5
N[C@H](CNC(=O)C1(c2ccc(F)cc2)CCCC1)c1ccc(C(=O)Nc2ccncc2)cc1 [Compound 417, 4-((S)-1-Amino-2-{[1-(4-fluoro-phenyl)-cyclopentanecarbonyl]-amino}-ethyl)-N-pyridin-4-yl-benzamide dihydrochloric acid salt]	< 0.05	0.05 to 0.5
N[C@@H](CNC(=O)C1(c2ccc(F)cc2)CCCC1)c1ccc(C(=O)Nc2ccncc2)cc1 [Compound 418, 4-((R)-1-Amino-2-{[1-(4-fluoro-phenyl)-cyclopentanecarbonyl]-amino}-ethyl)-N-pyridin-4-yl-benzamide dihydrochloric acid salt]	0.05 to 0.5	0.5 to 5
CC(C)(C(=S)NCC(N)c1ccc(C(=O)Nc2ccncc2)cc1)c1ccc(F)cc1 (centres unmarked) [Compound 419, 4-{1-Amino-2-[2-(4-fluoro-phenyl)-2-methyl-thiopropionylamino]-ethyl}-N pyridin-4-yl-benzamide dihydrochloric acid salt]	< 0.05	0.05 to 0.5
Cc1ccccc1CC(=O)N(C)CC(N)c1ccc(C(=O)Nc2ccncc2)cc1 (centres unmarked) [Compound 422, 4-{1-Amino-2-[methyl-(2-o-tolyl-acetyl)-amino]-ethyl}-N-pyridin-4-yl-benzamide]	5 to 50	0.5 to 5
Cc1cccc(CC(=O)N(C)CC(N)c2ccc(C(=O)Nc3ccncc3)cc2)c1 (centres unmarked) [Compound 423, 4-{1-Amino-2-[methyl-(2-m-tolyl-acetyl)-amino]-ethyl}-N-pyridin-4-yl-benzamide]	5 to 50	0.5 to 5
Cc1ccc(CC(=O)N(C)CC(N)c2ccc(C(=O)Nc3ccncc3)cc2)cc1 (centres unmarked) [Compound 424, 4-{1-Amino-2-[methyl-(2-p-tolyl-acetyl)-amino]-ethyl}-N-pyridin-4-yl-benzamide]	5 to 50	0.5 to 5
COc1ccccc1CC(=O)N(C)CC(N)c1ccc(C(=O)Nc2ccncc2)cc1 (centres unmarked) [Compound 425, 4-(1-Amino-2-{[2-(2-methoxy-phenyl)-acetyl]-methyl-amino}-ethyl)-N-pyridin-4-yl-benzamide]	5 to 50	0.5 to 5

Next, values leading:

IC50 (PKC epsilon) [µM]	IC50 (human ROCKα/ROCKII mix) [µM]	SMILES
5 to 50	0.05 to 0.5	COc1cccc(CC(=O)N(C)CC(N)c2ccc(C(=O)Nc3ccncc3)cc2)c1 (centres unmarked) [Compound 426, 4-(1-Amino-2-{[2-(3-methoxy-phenyl)-acetyl}-methyl-amino}-ethyl)-N-pyridin-4-yl-benzamide]
5 to 50	0.05 to 0.5	COc1ccc(CC(=O)N(C)CC(N)c2ccc(C(=O)Nc3ccncc3)cc2)cc1 (centres unmarked) [Compound 427, 4-(1-Amino-2-{[2-(4-methoxy-phenyl)-acetyl]-methyl-amino}-ethyl)-N-pyridin-4-yl-benzamide]
5 to 50	0.5 to 5	COc1ccc(C2(C(=O)N(C)CC(N)c3ccc(C(=O)Nc4ccncc4)cc3)CC2)cc1 (centres unmarked) [Compound 428, 4-(1-Amino-2-{[1-(4-methoxy-phenyl)-cyclopropanecarbonyl]-methyl-amino}-ethyl)-N-pyridin-4-yl-benzamide]
5 to 50	0.05 to 0.5	COc1ccc(CC(=O)N(C)CC(N)c2ccc(C(=O)Nc3ccncc3)cc2)c(OC)c1 (centres unmarked) [Compound 430, 4-(1-Amino-2-{[2-(2,4-dimethoxy-phenyl)-acetyl]-methyl-amino}-ethyl)-N-pyridin-4-yl-benzamide]
0.5 to 5	0.5 to 5	CN(CC(N)c1ccc(C(=O)Nc2ccncc2)cc1)C(=O)C1(c2ccc(F)cc2)CCC1 (centres unmarked) [Compound 474, 4-(1-Amino-2-{[1-(4-fluoro-phenyl)-cyclobutanecarbonyl]-methyl-amino}-ethyl)-N-pyridin-4-yl-benzamide]
0.5 to 5	0.5 to 5	CN(CC(N)c1ccc(C(=O)Nc2ccncc2)cc1)C(=O)C1(c2ccc(F)cc2)CCCC1 (centres unmarked) [Compound 475, 4-(1-Amino-2-{[1-(4-fluoro-phenyl)-cyclopentanecarbonyl]-methyl-amino}-ethyl)-N-pyridin-4-yl-benzamide]
5 to 50	0.5 to 5	CN(CC(N)c1ccc(C(=O)Nc2ccncc2)cc1)C(=O)Cc1cccc(F)c1F (centres unmarked) [Compound 477, 4-(1-Amino-2-{[2-(2,3-difluoro-phenyl)-acetyl]-methyl-amino}-ethyl)-N-pyridin-4-yl-benzamide]
5 to 50	0.5 to 5	CN(CC(N)c1ccc(C(=O)Nc2ccncc2)cc1)C(=O)Cc1cc(F)ccc1F (centres unmarked) [Compound 478, 4-(1-Amino-2-{[2-(2,5-difluoro-phenyl)-acetyl]-methyl-amino}-ethyl)-N-pyridin-4-yl-benzamide]
5 to 50	0.5 to 5	CN(CC(N)c1ccc(C(=O)Nc2ccncc2)cc1)C(=O)Cc1ccc(F)cc1F (centres unmarked) [Compound 479, 4-(1-Amino-2-{[2-(2,4-difluoro-phenyl)-acetyl]-methyl-amino}-ethyl)-N-pyridin-4-yl-benzamide]
5 to 50	0.5 to 5	CN(CC(N)c1ccc(C(=O)Nc2ccncc2)cc1)C(=O)C1(c2ccc(F)cc2F)CC1 (centres unmarked) [Compound 481, 4-(1-Amino-2-{[1-(2,4-difluoro-phenyl)-cyclopropanecarbonyl]-methyl-amino}-ethyl)-N-pyridin-4-yl-benzamide]
0.5 to 5	0.5 to 5	CN(CC(N)c1ccc(C(=O)Nc2ccncc2)cc1)C(=O)C(C)(C)c1ccc(F)c(F)c1 (centres unmarked) [Compound 485, 4-(1-Amino-2-{[2-(3,4-difluoro-phenyl)-2-methyl-propionyl]-methyl-amino}-ethyl)-N-pyridin-4-yl-benzamide]
0.5 to 5	0.5 to 5	CN(CC(N)c1ccc(C(=O)Nc2ccncc2)cc1)C(=O)C1(c2ccc(F)c(F)c2)CC1 (centres unmarked) [Compound 486, 4-(1-Amino-2-{[1-(3,4-difluoro-phenyl)-cyclopropanecarbonyl]-methyl-amino}-ethyl)-N-pyridin-4-yl-benzamide]
0.5 to 5	0.5 to 5	CN(CC(N)c1ccc(C(=O)Nc2ccncc2)cc1)C(=O)C1(c2ccc(F)c(F)c2)CCC1 (centres unmarked) [Compound 487, 4-(1-Amino-2-{[1-(3,4-difluoro-phenyl)-cyclobutanecarbonyl]-methyl-amino}-ethyl)-N-pyridin-4-yl-benzamide]
0.5 to 5	0.5 to 5	CN(CC(N)c1ccc(C(=O)Nc2ccncc2)cc1)C(=O)C1(c2ccc(F)c(F)c2)CCCC1 (centres unmarked) [Compound 488, 4-(1-Amino-2-{[1-(3,4-difluoro-phenyl)-cyclopentanecarbonyl]-methyl-amino}-ethyl)-N-pyridin-4-yl-benzamide]
5 to 50	0.5 to 5	CN(CC(N)c1ccc(C(=O)Nc2ccncc2)cc1)C(=O)Cc1ccc(Cl)cc1Cl (centres unmarked) [Compound 490, 4-(1-Amino-2-{[2-(2,4-dichloro-phenyl)-acetyl]-methyl-amino}-ethyl)-N-pyridin-4-yl-benzamide]
